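Grown in 96-well plates, cells were treated for 48 hours with each compound at five concentrations. Insufficient inhibition: endpoint recorded as highest concentration tested. TGI: concentration producing complete growth inhibition.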
Tests used:
Assay in all cases: NCI-60 cell line screen, 48 h
[1] = test system: NCI-H460 lung
[2] = test system: LOX IMVI melanoma
[3] = test system: A549 NSCLC
[4] = test system: CCRF-CEM leukemia
[5] = test system: SK-MEL-28 melanoma
[6] = test system: SR leukemia
[7] = test system: SF-295 CNS
[8] = test system: OVCAR-4 ovarian
[9] = test system: T-47D breast
[10] = test system: PC-3 prostate
[11] = test system: IGROV1 ovarian
[12] = test system: RPMI-8226 leukemia
[13] = test system: HCT-15 colon

Compound	TGI [1] [µM]	TGI [2] [µM]	TGI [3] [µM]	TGI [4] [µM]	TGI [5] [µM]	TGI [6] [µM]	TGI [7] [µM]	TGI [8] [µM]	TGI [9] [µM]	TGI [10] [µM]	TGI [11] [µM]	TGI [12] [µM]	TGI [13] [µM]
Cc1c(C)c(C)c(-n2c(=O)n(C)c(=O)n2-c2cc(C(C)(C)C)cc(C(C)(C)C)c2O)c(C)c1C	27.1	26.8	17.3	30.8	28	> 46.9	21.2	21.4	18.6	12	22	29	22.5
COC(=O)C(=O)C(C(=O)C(=O)Nc1ccccc1OC)c1nc2ccc([N+](=O)[O-])cc2[nH]c1=O (centres undefined)	> 100	> 100	> 100	> 100	> 100	> 100	> 100	> 100	> 100	> 100	> 100	> 100	> 100
COc1ccc(NC(C(N)=O)c2cc3cc(Br)ccc3nc2Cl)cc1 (centres undefined)	> 100	> 100	> 100	> 100	> 100	51.6	> 100	> 100	> 100	> 100	> 100	> 100	> 100
Cc1[nH]c2ccccc2c1/C=N/NC(=O)c1cccc(I)c1	36.1	31.2	85.6	63.2	76.3	44.5	43.3	43.2	52.9	66	75.3	48.4	84.5
CC1(C)C2CCC1C(=O)[C@@]1(C=CC(=O)CC1)C2 (some centres undefined)	> 100	> 100	> 100	> 100	> 100	> 100	> 100	> 100	> 100	> 100	> 100	> 100	> 100
O=C(c1cccnc1)N1N=C(c2ccccc2)CC1(O)c1cc(F)c(Cl)cc1Cl (centres undefined)	44.7	30	> 100	> 100	65.5	67	36.9	> 100	62.4	72.2	59.9	55.6	93.4
O=[N+]([O-])c1cc2ccc(N(CCO)CCO)nc2nc1N(CCO)CCO	> 100	> 100	> 100	> 100	> 100	> 100	> 100	> 100	> 100	> 100	> 100	> 100	> 100
CCOC(=O)CCN1C(=O)C(=O)N(c2ccc(OC)cc2)C1=S	> 100	> 100	> 100	> 100	> 100	> 100	> 100	> 100	> 100	> 100	> 100	> 100	> 100

From PubChem BioAssay (NCI)
